Usually Kd stands for the equilibrium constant for the complex coming apart.

The target in one test is T1, MBP (Escherichia coli, UniProt P0AEX9).
T1 construct: made in house
As to the kind of experiment: SPR (BIACORE) detection of maltose binding to immobilized MBP. A general note: Surface plasmon resonance follows binding to a sensor surface in real time, without labels.

Test [1] deals with T2, Tissue transglutaminase (tTG) (Cavia cutleri, UniProt P08587).
T2 construct: purchased Sigma
T2 sequence (P08587 1-690): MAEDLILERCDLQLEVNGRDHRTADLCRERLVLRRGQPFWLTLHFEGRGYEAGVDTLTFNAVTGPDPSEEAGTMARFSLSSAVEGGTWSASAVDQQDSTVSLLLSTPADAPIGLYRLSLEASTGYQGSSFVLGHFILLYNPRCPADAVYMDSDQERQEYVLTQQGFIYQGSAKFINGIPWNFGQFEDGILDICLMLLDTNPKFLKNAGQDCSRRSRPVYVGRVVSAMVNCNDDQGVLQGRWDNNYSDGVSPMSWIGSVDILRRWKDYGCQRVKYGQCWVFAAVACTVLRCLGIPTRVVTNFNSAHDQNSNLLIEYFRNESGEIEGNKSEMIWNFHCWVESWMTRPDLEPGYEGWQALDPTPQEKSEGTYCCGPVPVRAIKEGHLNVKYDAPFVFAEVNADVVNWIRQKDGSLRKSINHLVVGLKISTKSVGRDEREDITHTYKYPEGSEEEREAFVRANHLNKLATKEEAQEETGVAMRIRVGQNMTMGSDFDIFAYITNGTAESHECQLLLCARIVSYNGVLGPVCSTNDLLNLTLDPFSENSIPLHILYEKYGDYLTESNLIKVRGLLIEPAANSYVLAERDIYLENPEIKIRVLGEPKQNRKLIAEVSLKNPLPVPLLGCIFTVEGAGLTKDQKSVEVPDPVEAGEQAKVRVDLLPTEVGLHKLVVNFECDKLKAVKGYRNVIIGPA
As to the kind of experiment: SPR (BIACORE) detection of calcium binding to immobilized tissue transglutaminase. On the procedure:
Tissue transglutaminase (tTG) was obtained from Sigma and prepared at 1.3 mg/mL at pH 4.5 in 10 mM NaOAc. A surface bearing 2500 RU of tTG was prepared using standard EDC/NHS coupling chemistry and was used for all experiments. Ethanolamine (1.0 M, pH 8.0) was used to quench unreacted esters. Calcium chloride was prepared in dH2O at the desired concentrations. Injections were 20 μL at a flow rate of 10 μL/min (2 minute contact time). Report points were collected at 100 seconds post injection. Report points from injections over a blank surface were subtracted. Typical injections over the blank control surface gave minimal (<5 RU) signals, but were subtracted nonetheless. Injections were randomized relative to concentration. Data points were discarded for data collected during obvious anomalies, such as air bubbles. Running buffer was HBS-EP (BIACORE) without calcium supplementation. Calcium was removed from transglutaminase by injection of 5 mM EDTA pH 8.0. After EDTA injection the surface was allowed to stabilize for 300 seconds before additional calcium injections.

Test [2] concerns the target T3, Bovine brain calmodulin (CaM) (Bos taurus, UniProt P62157).
T3 construct: Bovine brain calmodulin (CaM) was obtained from Calbiochem; purchased Calbiochem; host or cells: bovine brain
As to the kind of experiment: SPR (BIACORE) detection of calcium binding to immobilized calmodulin. On the procedure: Bovine brain calmodulin (CaM) was obtained from Calbiochem and immobilized onto carboxymethyl dextran gold surfaces using standard BIACORE EDC/NHS coupling chemistry. HBS-EP was used as an eluent. CaM was injected at 0.5 mg/mL in 10 mM sodium acetate, pH 4.0 (54 minute injection). This procedure immobilized approximately 480 RU of calmodulin. During the immobilizations, the flow rate was 5 μL/min. For some experiments, the BIACORE™ 3000 was used. For others, a BIACORE™ Upgrade was used. In general, injections were run at a flow rate of 5 or 10 μL/min, in HBP-EP buffer. Varying concentrations of CaCl2 in HBS-EP (3.5-50 mM) were injected on the CaM and blank surfaces.

The target of a further test is T4, tTG (Homo sapiens, UniProt P21980).
T4 sequence (P21980 1-687): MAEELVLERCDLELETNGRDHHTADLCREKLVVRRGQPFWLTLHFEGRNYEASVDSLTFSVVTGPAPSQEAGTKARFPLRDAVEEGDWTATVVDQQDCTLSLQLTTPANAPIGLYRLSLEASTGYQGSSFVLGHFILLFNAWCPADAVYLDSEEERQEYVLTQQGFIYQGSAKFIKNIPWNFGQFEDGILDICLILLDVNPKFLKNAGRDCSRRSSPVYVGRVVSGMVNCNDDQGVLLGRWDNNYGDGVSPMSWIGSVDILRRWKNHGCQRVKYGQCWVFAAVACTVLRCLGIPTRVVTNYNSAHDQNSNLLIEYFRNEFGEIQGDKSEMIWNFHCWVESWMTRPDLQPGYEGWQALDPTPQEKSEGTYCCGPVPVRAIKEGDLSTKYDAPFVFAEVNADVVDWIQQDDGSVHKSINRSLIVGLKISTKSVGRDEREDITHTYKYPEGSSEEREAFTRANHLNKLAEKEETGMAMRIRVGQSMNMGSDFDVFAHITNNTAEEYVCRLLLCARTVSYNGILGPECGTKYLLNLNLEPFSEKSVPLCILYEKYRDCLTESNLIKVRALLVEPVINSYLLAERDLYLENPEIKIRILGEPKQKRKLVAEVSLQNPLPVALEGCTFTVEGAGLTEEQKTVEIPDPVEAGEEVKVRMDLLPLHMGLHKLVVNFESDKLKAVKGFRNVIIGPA
The conditions noted are these: reported value; read-out: reported Kd of calcium for the protein; cited from earlier work.

For test [3], the target named is T5, Glucose/Galactose Binding Protein (GGBP) (Escherichia coli, UniProt P0AEE5).
T5 construct: made in house
As to the kind of experiment: SPR (BIACORE) response of saccharides injected over immobilized GGBP surface. To be noted: surface bearing 2000 RU of GGBP; blank subtracted. On the procedure: Glucose/Galactose Binding Protein (GGBP) was prepared from osmotic shock lysates and coupled to the CM5 chip surface at 20 μM at pH 4.5 in 10 mM NaOAc using standard NHS/EDC procedures. Ethanolamine (1.0 M, pH 8.0) was used to quench unreacted esters and was also found to be effective at removing non-covalently adsorbed protein from the chip surface. Buffer flow was maintained overnight to remove additional non-covalently bound GGBP from the surface before ligand injections were performed. A surface bearing 2000 RU of GGBP was used for experiments. Ligands were prepared in dH2O at the desired concentrations. Injections were 20 μL at a flow rate of 10 μL/min (2 minute contact time). Report points were collected at 100 seconds post injection. Report points from injections over a blank surface were subtracted. Typical injections over the blank control surface gave minimal (<5 RU) signals, but were subtracted nonetheless. Ligand injections were repeated 3-5 times and the order of injection was reversed periodically. Data points were discarded for data collected during obvious anomolies, such as air bubbles. Remaining data was subjected to Q tests and error represents single standard deviations. A single set of sugar solutions was used for injection over the control and test surfaces. Running buffer was HBS-EP (BIACORE) supplemented with 5 mM CaCl2. Bound GGBP ligands were removed either by injection of 100 mM α-methyl mannoside in 10 mM NaOAc pH 4.5 or by 500-1000 seconds of running buffer wash.

T5 sequence (P0AEE5 24-332 limits assumed): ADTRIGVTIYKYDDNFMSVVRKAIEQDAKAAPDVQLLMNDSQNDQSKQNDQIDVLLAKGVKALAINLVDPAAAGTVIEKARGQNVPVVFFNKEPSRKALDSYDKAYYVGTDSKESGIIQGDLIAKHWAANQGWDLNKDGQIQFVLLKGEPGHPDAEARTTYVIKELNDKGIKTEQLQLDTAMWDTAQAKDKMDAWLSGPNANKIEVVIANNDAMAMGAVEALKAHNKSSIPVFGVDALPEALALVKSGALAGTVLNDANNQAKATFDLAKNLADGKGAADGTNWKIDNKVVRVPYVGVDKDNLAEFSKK
Experimental for MBP: MBP was prepared from osmotic shock lysates and coupled to a CM5 (carboxymethyl dextran) chip (BIACORE) using standard EDC/NHS procedures performed with reagents from the BIACORE EDC/NHS coupling kit. MBP was 10 μM at pH 4.5 in 10 mM NaOAc. Hepes Buffered Saline-EP (HBS-EP: 0.01 M HEPES pH 7.4, 0.15 M NaCl, 3 mM EDTA, 0.005% surfactant P20; BIACORE™ AB) was used as an eluent (O'Shannessy et al., 1992) supplemented with 5 mM CaCl2. Ethanolamine (1.0 M, pH 8.0) was used to quench unreacted esters and was also found to be effective at removing non-covalently adsorbed protein from the chip surface. […] Report points were collected at 100 seconds post injection. Report points from injections over a blank surface were subtracted. Data points were discarded for data collected during obvious anomalies, such as air bubbles. Running buffer was HBS-EPA (BIACORE) supplemented with 5 mM CaCl2.
After regeneration the surface was allowed to stabilize for 300 seconds before additional ligand injections.

In the case of `OC[C@H]1O[C@H](O[C@H]2[C@H](O)[C@@H](O)C(O)O[C@@H]2CO)[C@H](O)[C@@H](O)[C@@H]1O` (mixture of isomers) [maltose], at MBP, the “change in RUs on injection over the MBP surface” value is reported as “reproducible net decrease in RUs”.
On to `[Ca+2].[Cl-].[Cl-]` [calcium, Calcium chloride], for which the “change in SPR response on calcium binding to tTG” value in test [1] (SPR, immobilized tTG) is “positive change in response”. Besides, the EC50 in test [1] (surface bearing 2500 RU of tTG, running buffer without calcium, read-out: half-maximal response of tTG) came out at 500 µM. The “signal over the CaM surface during injection” value in test [2] (50 mM CaCl2, blank surface gave 1502 RU) was found to be 1350 RU. In addition, the “change in SPR signal on CaM surface relative to blank surface” value in test [2] (3.5-50 mM CaCl2 in HBS-EP, approximately 480 RU of calmodulin) is “reduction in signal”. The Kd on tTG is around 1000 µM.
Take `OC[C@H]1O[C@H](O[C@H]2[C@H](O)[C@@H](O)[C@@H](O[C@H]3[C@H](O)[C@@H](O)[C@@H](O[C@H]4[C@H](O)[C@@H](O)C(O)O[C@@H]4CO)O[C@@H]3CO)O[C@@H]2CO)[C@H](O)[C@@H](O)[C@@H]1O` (stereo partly drawn) [maltotetraose]: in test [3], the “response in relative RU on injection over the GGBP surface” value is “negligible or slightly positive increase in relative RU”.
For cyclodextrins, the “response in relative RU on injection over the GGBP surface” value in test [3] was “negligible or slightly positive increase in relative RU”.
Same read-out and setting: the entry for maltotriose is “negligible or slightly positive increase in relative RU”.

Source of the values: patent US6576430B1, “Detection of ligands by refractive surface methods” (Becton, Dickinson and Company, priority 2000, dated 2003).
